# Assay results as given in patent US20200397718A1, “USE OF HYDROXYTYROSOL ACETATE IN IMPROVING FUNCTION OF AORTIC ENDOTHELIAL CELL” (XI'AN JIAOTONG UNIVERSITY, priority 2019, published 2020).
# How the values were obtained:
# [1] = test system: human aortic endothelial cells (HAECs); experiment: MTT assay, relative cell viability of human aortic endothelial cells; type: cell-based
# Description: (§1) Human aortic endothelial cells (HAECs) were purchased from Shanghai Shanghai Bioleaf Biotech Co., Ltd. Palmitic acid (PA) was purchased from SIGMA Company. A palmitic acid solution having a concentration of 500 μM was prepared by dissolving palmitic acid in water. A cell culture incubator was adopted to culture the cells in a temperature-constant, humidified, sterile condition. The cells were cultured in wells of culture plates at an atmosphere of 95% air and 5% CO2 at 37° C. in the incubator. The experiments were performed on different experimental groups of cells. The experiments were performed on three experimental groups of cells: (1) control group; (2) 500 μM palmitic acid treatment group; and (3) hydroxytyrosol acetate protection group.
# The HAECs that were previously cultured in a 12-well cell culture plate were divided into 4 different experimental groups and respectively applied with hydroxytyrosol acetate in different concentrations, 0 μM, 10 μM, 50 μM, and 100 μM, all followed with an 24-hour incubation. […]
# An MTT assay was performed to all groups of cells. […] The absorbance was measured at a wavelength of 490 nm in a spectrophotometer. The absorbance of this colored solution can be quantified by measuring at a certain wavelength (usually between 500 and 600 nm) by a spectrophotometer.
# [2] = test system: IL-6, MMP-1, ICAM-1 and PAI-1 mRNA in human aortic endothelial cells; experiment: mRNA levels of IL-6, MMP-1, ICAM-1 and PAI-1 (RT-PCR) in palmitic acid-induced inflammation of HAECs; type: cell-based
# Description: as §1
# (§2) The HAECs that were previously cultured in a 12-well cell culture plate were divided into 5 different experimental groups and respectively applied with hydroxytyrosol acetate in respective concentrations, 0 μM, 0 μM, 10 μM, 50 μM, and 100 μM, all followed with an 24-hour incubation. Then, the last 4 groups of cells were respectively applied with 500 μM palmitic acid, the first was not, all followed with another 24-hour incubation. The detecting of mRNA levels corresponding to interleukin-6 (IL-6), matrix metalloproteinase-1 (MMP-1), intercellular adhesion molecule-1 (ICAM-1) and plasma plasminogen activator inhibitor-1 (PAI-1) were respectively carried out on each group of cells by using reverse transcription RNA and real-time quantitative polymerase chain reaction (PCR), and the specific method is as follows:
# The medium for cell culture in the wells was removed. 500 μL of TRIzol™ reagent was added to each well, and the culture plate was then shaken at room temperature for 5 minutes. Then the cells in the wells were collected and transferred to a 1.5 mL Eppendorf® (EP) tube. 200 μl (taking ⅕ of total volume of the substance in the EP tube) of chloroform was then added to the EP tube for extraction of protein. […] The concentration of the solution was measured by an ultraviolet spectrophotometer. […]
# [3] = test system: reactive oxygen species in human aortic endothelial cells; experiment: Detection of reactive oxygen species (H2DCF-DA) in HAECs; type: cell-based
# Description: as §1
# The cultured HAECs were divided into 3 different experimental groups, the control (Ctrl) group, the PA group, and the hydroxytyrosol acetate+PA (HTac+PA) group. The cells of the HTac+PA group were applied with hydroxytyrosol acetate in a concentration of 100 μM followed with a 24-hour incubation. Then, the cells of both the PA group and the HTac+PA group were applied with 500 μM palmitic acid, all followed with another 24-hour incubation.
# After treating the cells with hydroxytyrosol acetate and palmitic acid, and discarding the medium, the cells were rinsed once with PBS. […] The supernatant was collected and measured by a microplate reader.
# [4] = test system: mitochondrial membrane fusion-related proteins Mfn1, Mfn2; experiment: Western blot of mitochondrial membrane fusion-related proteins in HAECs; type: cell-based, human
# Description: as §1, with “group. […]” for “group.”
# The medium for cell culture in the wells was removed. […] The supernatants were collected, and the proteins therein were quantified by bicinchoninic acid (BCA) assay, and normalized. […]
# 10 μg of the extracted proteins were subjected to gel electrophoresis with 10% acrylamide gel, and electrophoretic transferred onto a PVDF membrane, which were blocked, and incubated with a primary antibody at 4° C. overnight, free primary antibody was washed away. […] Target proteins were detected by chemiluminescence.
# [5] = test system: interleukin-6 (IL-6) mRNA; experiment: mRNA level corresponding to IL-6 (RT-PCR) in HAECs; type: cell-based, human; conditions: 500 μM palmitic acid, 24 h
# Description: as §1, with “The experiments were performed on three experimental groups of cells: (1) control group; (2) 500 μM palmitic acid treatment group; and (3) hydroxytyrosol acetate protection group.” left out
# as §2, with “Then, the last 4 groups of cells were respectively applied with 500 μM palmitic acid, the first was not, all followed with another 24-hour incubation.” left out
# (§3) The medium for cell culture in the wells was removed. […] The concentration of the solution was measured by an ultraviolet spectrophotometer. […]
# [6] = test system: matrix metalloproteinase-1 (MMP-1) mRNA; experiment: mRNA level corresponding to MMP-1 (RT-PCR) in HAECs; type: cell-based, human; conditions: 500 μM palmitic acid, 24 h
# Description: as §1, with “The experiments were performed on three experimental groups of cells: (1) control group; (2) 500 μM palmitic acid treatment group; and (3) hydroxytyrosol acetate protection group.” left out
# as §2, with “Then, the last 4 groups of cells were respectively applied with 500 μM palmitic acid, the first was not, all followed with another 24-hour incubation.” left out
# as §3
# [7] = 100 μM, 24 h pre-treatment, then 500 μM palmitic acid 24 h
Molecule,"proliferation of human aortic endothelial cells ([1]; 100 μM hydroxytyrosol acetate, 24 h)","toxic and side effects on human aortic endothelial cells ([1]; HAECs, 0-100 μM, FIG. 1)","inhibition of the palmitic acid-induced inflammatory response (mRNA IL-6, MMP-1, ICAM-1, PAI-1) ([2]; 50 μM, 24 h pre-treatment, then 500 μM palmitic acid 24 h)","inhibitory effect on the palmitic acid-induced inflammatory response (mRNA IL-6, MMP-1, ICAM-1, PAI-1) ([2]; 100 μM, 24 h pre-treatment, then 500 μM palmitic acid 24 h, compared with 50 μM)","production of excessive reactive oxygen species induced by palmitic acid [3, 7]","expression of Mfn2 [4, 7]","inflammatory cytokines IL-6, MMP-1, ICAM-1 and PAI-1 versus control group ([2]; 500 μM palmitic acid, 24 h)",increase of mRNA level corresponding to IL-6 versus control [5],increase of mRNA level corresponding to MMP-1 versus control [6],"production of reactive oxygen species ROS ([3]; 500 μM palmitic acid, 24 h)","expression of mitochondrial membrane fusion-related proteins Mfn1, Mfn2 ([4]; 500 μM palmitic acid, 24 h)"
hydroxytyrosol acetate,promoted,no toxic and side effects,significant inhibition,more obvious,significantly inhibit,significantly increasing,–,–,–,–,–
"CCCCCCCCCCCCCCCC(=O)O [palmitic acid, reference compound]",–,–,–,–,–,–,significantly higher,about 20 times,about 10 times,a large amount,reducing
